Experiment: In vitro nitric oxide release and content by nitrogen oxides analyzer (Monitor Labs Model 8440)
Format: physicochemical
Protocol: The nitric oxide content and kinetic release profile, shown in FIG. 2, of nitrosylcobalamin was determined in vitro using a nitrogen oxides analyzer (Monitor Labs Model 8440). The amount of NO-"loading" was determined by examining the cumulative NO release, characterized at pH 4.9, 32° C., during a time span of 675.5 hours. The total NO released was 4,610 nmol NO, 38% loading based on the theoretical maximum of 11,890 nmol. The first twenty hours of NO release was characterized in great detail, with data readings taken every 15 minutes for the first eight hours and every half hour thereafter, resulting in the production of 260 nmol NO. […] At pH 10.0, NO release was undetected even though the sample size was increased to 20.6 mg.

NO produced at pH 5.0 (5 mg sample, pH 5.0, 37° C., 86 hour time span): 95.0 nmol | NO produced at pH 6.0 (5 mg sample, pH 6.0, 37° C., 86 hour time span): 2.4 nmol | NO produced at pH 7.4 (5 mg sample, pH 7.4, 37° C., 86 hour time span): 1.05 nmol | kinetic order of the cumulative NO release profile (cumulative NO release, pH 4.9, 32° C., R^2 =0.9984): first order kinetics | calculated half life of NO release (first order fit of cumulative NO release, pH 4.9, 32° C.): 210 h | NO release in the first twenty hours (first twenty hours, pH 4.9, 32° C.): 260 nmol | NO loading, based on the theoretical maximum of 11,890 nmol (from cumulative NO release at pH 4.9, 32° C., 675.5 hours): 38% | total NO released (cumulative NO release) (pH 4.9, 32° C., time span of 675.5 hours): 4,610 nmol | NO release at pH 10.0 (pH 10.0, sample size 20.6 mg): undetected
Substance: nitrosylcobalamin
